Here are results for one compound from patent US20060069157A1, “Method of ameliorating or abrogating the effects of a neurodegenerative disorder, such as Huntington's disease, by sodium butyrate chemotherapy” (U.S. DEPARTMENT OF VETERANS AFFAIRS, priority 2004, published 2006).

The nature of one test: Body weight in R6/2 mice. It counts as in vivo, mouse. As to conditions: same plateau in PBS-treated mice. The method, then:
Intraperitoneal Dosing: Based upon previous studies (Egorin et al., 1999), a dose response study was performed, treating groups of wild type mice (n=10) and littermate R6/2 mice (n=20) with 100, 200, 400, 600, 1,200, 5,000, and 10,000 mg/kg daily intraperitoneal injection (100 Êl) of sodium butyrate (Acros Organics/Fisher Scientific) dissolved in PBS and made fresh daily. Control groups were treated with PBS injection or untreated. Approximately 240 mice were used for behavioral and survival analyses.
Clinical Assessment: Both motor performance and body weight were measured throughout the study. Training sessions were given on days 21 and 22 to acclimate the mice to the rotarod apparatus (Columbus Instruments, Columbus, Ohio). Motor performance (constant rotation at 16 rpm) was assessed weekly from 23-63 days of age and twice weekly from 63 days of age in the sodium butyrate-treated, PBS-treated R6/2 mice, and wild type littermate control mice. Three 60 sec trials were given during each session and averaged. Body weights were recorded twice weekly at the same time of day in all groups.

In test [1] the test system is huntingtin-positive aggregates. Nature of the test: Huntingtin aggregate stereology and ubiquitin inclusions in neostriatum. To be noted: 1.2 g/kg/d i.p. from 21 days; at 90 days; vs PBS-treated R6/2. It counts as in vivo, mouse. How it is done: Neuropathological Evaluation of Sodium Butyrate Treatment: Beginning at 21 days, R6/2 transgenic mice and wild-type littermate control mice were treated daily with the most optimal dose of sodium butyrate (1.2 g/kg), as determined by survival studies, or PBS intraperitoneal injections. Groups of 10 animals from each treatment paradigm were deeply anesthetized and transcardially perfused with 4% buffered paraformaldehyde at 90 days of age. Forty mice were used for neuropathological analysis, as previously described (Ferrante et al., 2002). […]
Stereology/Quantitation: Serial-cut coronal tissue-sections beginning from the most rostral segment of the neostriatum to the level of the anterior commissure (Inter aural 5.34 mm/Bregma 1.54 mm to Inter aural 3.7 mm/Bregma −0.10 mm), were used for huntingtin aggregate analysis. […] Striatal neuron areas were analyzed by microscopic videocapture using a Windows-based image analysis system for area measurement (Optimas, Bioscan Incorporated, Edmonds, Wash.). […] Cross-sectional areas were analyzed using Statview.

Test [2] concerns acetylated histone 3 and histone 4. Nature of the test: Immunocytochemistry of acetylated H3 and H4 in brain sections. It counts as in vivo, mouse. As to conditions: 1.2 g/kg/d i.p.; R6/2 mice at 90 days. The method, then:
Neuropathological Evaluation of Sodium Butyrate Treatment: Beginning at 21 days, R6/2 transgenic mice and wild-type littermate control mice were treated daily with the most optimal dose of sodium butyrate (1.2 g/kg), as determined by survival studies, or PBS intraperitoneal injections. Groups of 10 animals from each treatment paradigm were deeply anesthetized and transcardially perfused with 4% buffered paraformaldehyde at 90 days of age. Forty mice were used for neuropathological analysis, as previously described (Ferrante et al., 2002). Serially cut tissue sections were stained for Nissl substance and immunostained for huntingtin (monoclonal huntingtin antibody, 1:1,000 dilution, Chemicon International Inc.) and for acetylated histone 3 and histone 4 (dilution, 1:1,000, Upstate Biotechnology, Lake Placid, N.Y.), using a previously reported conjugated secondary antibody method in murine brain tissue samples (Ferrante et al., 2002). Specificity for the antisera used in this study was examined in each immunochemical experiment to assist with the interpretation of the results. Preabsorption with excess target proteins, omission of the primary antibodies, and omission of secondary antibodies were performed to determine the amount of background generated from the detection assay.

For test [3], the system named is Sp1. Put plainly: Sp1 acetylation immunoprecipitation and Western blot analysis. It counts as in vivo, mouse. To be noted: 1.2 g/kg/day i.p. for two weeks. The method, then: Sp1 Acetylation Immunoprecipitation and Western Blot Analysis: At 42 days of age, groups (n=6) of R6/2 mice were treated with daily 1.2 g/kg sodium butyrate or PBS intraperitoneal injections for two weeks. The mice were euthanized and tissue lysates were obtained by homogenizing each brain sample with 100 mM Tris (pH 7.4) buffer containing 1% Triton-X 100, 150 mM NaCl, 1 mM sodium orthovanadate, 5 mM sodium fluoride, 3 mM PMSF, 3 mM DTT, 0.5 Êg/ml leupeptin, and 10 Êg/ml aprotinin. To monitor Sp1 acetylation in vivo, tissue lysates were precleared by the addition of 30 Êl of protein A-sepharose (50% v/v slurry) for 1 hr at 4° C. and incubated with 2 Êg of Sp1 antibody for 2-4 hr. Twenty-five Êl of protein A-sepharose was added to lysates and left for 1 hr at […]. All beads were collected by centrifugation and washed twice with lysis buffer and once with PBS. The samples were boiled and divided into equal aliquots before separation on SDS-PAGE. Samples were electrophoresed under reducing conditions on 8% polyacrylamide gels. Proteins were then transferred to nitrocellulose membrane (BioRad, Hercules, Calif.). […] Proteins immunoreactive to acetyl lysine were detected by using an acetyl-lysine specific antibodies (Upstate Biotechnology, Lake Placid, N.Y., 1:1000 dilution). Immunoreactive proteins were detected according to an enhanced chemiluminescent protocol (Amersham, Piscataway, N.J.). […]
On the technique in general: Immunoblotting shows a protein as a band on a membrane.

The subject of the next test is huntingtin transgene. Nature of the test: Transgene expression (Western blot, whole brain, 1C2 antibody). It counts as in vivo, mouse. As to conditions: 1.2 g/kg/d; R6/2 whole brain; vs PBS-treated R6/2. The method, then: Transgene Expression: Transgene expression was determined in whole brain by Western blot analysis of groups (n=6) of sodium butyrate-treated (1.2 g/kg/d) and untreated R6/2 mice. Brain tissue was homogenized in a protease inhibitor cocktail buffer (Complete, Roche). Twenty Êg of protein (supernatant fraction) was resolved on 10% SDS-polyacrylamide gel (BioRad), transferred to PVDF membrane (BioRad), and probed with 1C2 antibody (Euromedex, France) specific for regions of expanded huntingtin, using a horseradish conjugated anti-rabbit secondary antibody, followed by chemiluminescent detection (Western Lightening™, New England Nuclear), and run with parallel blots probed against (-tubulin to normalize for gel loading.

The subject of a further test is Drosophila model of HD. To be noted: Drosophila model of HD (Steffan 2001); cited from earlier work.
Test [4] has as its system Sp1. To be noted: wild type B6CBA mice at 8 weeks of age after 2 weeks of treatment (Ryu, 2003a); cited from earlier work.

Entries after “also recorded” stand apart in the source; their conditions may differ.

With `CCCC(=O)[O-].[Na+]` [sodium butyrate], the “body weight plateau until death” value in the test “Body weight in R6/2 mice” is on record as 19-20 gms. The “huntingtin-positive striatal aggregates or ubiquitin-positive inclusions” value in test [1] was “no significant differences; also recorded: no significant reduction”. For the same compound, in test [2], the “H3 and H4 acetylation immunostaining in brain sections” value is “increased acetylation of histone 4; also recorded: greatly enhanced”. Besides, the “basal levels of Sp1” value with Sp1 [3] (R6/2 mice) is “did not change”. Also, the “Sp1 acetylation levels in brain” value in the test with Sp1 [3] (R6/2 mice vs PBS) was “increased”. In addition, the huntingtin transprotein expression-levels entry in the test with huntingtin transgene is “no differences”. Further, the “photoreceptor neuron degeneration and lethality” value in the test on Drosophila model of HD was “slow photoreceptor neuron degeneration and ameliorate lethality”. Moreover, in the test on Sp1 [4], the Sp1 acetylation entry is “significantly augmented”.
